Assay results taken from patent publication US20030139578A1, “Antibodies specifically binding PDE8A and PDE8B” (Incyte Genomics, Inc., priority 1996, published 2003).

These compounds were tested against T1, PDE8A(E) (Homo sapiens, UniProt O60658) (assay: PDE activity assay, conversion of 3H-cAMP to 3H-adenosine by recombinant PDE8A(E)). Settings: not given.
T1 construct: A 1.6 kb region of PDE8A(E) (the C-terminal 545 amino acids) was amplified and cloned into the baculovirus transfer vector pFASTBAC; made in house; host or cells: Sf9 insect cells (baculovirus, pFASTBAC)
T1 sequence (O60658 285-829 limits assumed): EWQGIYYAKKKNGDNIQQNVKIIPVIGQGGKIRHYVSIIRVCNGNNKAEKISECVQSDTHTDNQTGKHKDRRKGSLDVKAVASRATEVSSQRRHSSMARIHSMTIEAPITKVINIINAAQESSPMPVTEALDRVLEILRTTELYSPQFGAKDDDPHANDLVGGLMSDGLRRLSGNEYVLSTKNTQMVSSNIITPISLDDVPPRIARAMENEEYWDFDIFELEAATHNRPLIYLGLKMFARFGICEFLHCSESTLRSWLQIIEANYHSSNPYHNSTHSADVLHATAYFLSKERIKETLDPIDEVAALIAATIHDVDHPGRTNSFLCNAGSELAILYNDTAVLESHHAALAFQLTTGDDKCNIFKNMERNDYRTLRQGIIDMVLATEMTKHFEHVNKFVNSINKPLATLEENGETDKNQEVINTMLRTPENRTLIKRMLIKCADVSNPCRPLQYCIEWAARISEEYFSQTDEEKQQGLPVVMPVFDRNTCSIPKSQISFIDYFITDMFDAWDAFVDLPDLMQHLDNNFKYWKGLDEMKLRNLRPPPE
Format: biochemical
Experimental: Recombinant virus stocks were prepared according to the manufacturer's protocol. Sf9 cells were cultured in Sf900 II Sfm serum free media (Invitrogen) at 27 C. For expression, 1×10^8 Sf9 cells were infected at a multiplicity of infection of 5 in a final volume of 50 mls. At three days post-infection, the cells were harvested, and enzyme-containing lysates were prepared as described below.
PDE8A(E) to be used for assay was prepared from transfected Sf9 cells. Cells were harvested by centrifugation, resuspended in homogenization buffer (20 mM Tris-HCl, 2 mM benzamidine, 1 mM EDTA, 0.25 M sucrose, 100 uM PMSF, pH 7.5) at 1×10^7 cells/ml, and disrupted with 3×10 second pulses using a Sonifier Processor (Emerson Branson, Korea). Cellular debris was removed by centrifugation at 14,000×g for 10 minutes. The supernatant was stored at −70° C.
PDE activity was assayed by measuring the conversion of ^3H-cAMP to ^3H-adenosine in the presence of PDE8A(E) and 5′ nucleotidase. […] The reaction was started by the addition of 25 ul of diluted enzyme supernatant. Reactions were run directly in mini Poly-Q scintillation vials (BeckmanCoulter, Fullerton Calif.). […] The reaction was stopped by the addition of 1 ml of Dowex AG1×8 (C1 form) resin (1:3 slurry). Three ml of scintillation fluid were added, the contents of the vials were mixed, and the resin in the vials was allowed to settle for 1 hr before counting. Soluble radioactivity associated with ^3H-adenosine was quantitated using a Beta scintillation counter. The amount of radioactivity recovered is proportional to the activity of PDE8 in the reaction. For inhibitor studies (FIG. 8), all reactions contained 1% DMSO, 50 nM cAMP, and the indicated inhibitor concentrations. The control vial contained all reagents minus the enzyme aliquot.

| SMILES | IC50 [µM] |
| --- | --- |
| OCCN(CCO)c1nc(N2CCCCC2)c2nc(N(CCO)CCO)nc(N3CCCCC3)c2n1 [dipyridamole] | 9 |

Same assay, conditions: 1% DMSO, 50 nM cAMP; FIG. 8

| SMILES | inhibition of PDE8A(E) activity |
| --- | --- |
| CC(=O)Nc1ccc(-c2c[nH]c(=O)cn2)cc1 [SKF94120] | not inhibited |
| CC(C)Cn1c(=O)n(C)c(=O)c2[nH]cnc21 [IBMX] | not inhibited |
| COc1ccc(C2CNC(=O)C2)cc1OC1CCCC1 (stereo not drawn) [rolipram] | not inhibited |
| CCOC(=O)C1=C[C@]2(CC)CCCN3CCc4c(n1c1ccccc41)[C@@H]32 [vinpocetine] | not inhibited |
| CCCOc1ccccc1-c1nc2nn[nH]c2c(=O)[nH]1 [zaprinast] | not inhibited |
